Test results from PubChem BioAssay AID1963854 (Molecular Pharmacology Branch, DTP, NCI, 2024).

Test system: 186277-243-T-J2-PDC complex spheroid viability
Assay: Anticancer human tumor 186277-243-T-J2-PDC patient-derived colon adenocarcinoma cell line growth inhibition [POLQ]
Conditions: for IC50: curve of first compound; for viability, T/C: stronger effect = lower value
How it was run: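 Complex spheroid viability model combining PDC tumour cells with endothelial (HUVEC) and MSC stromal cells. Novobiocin, ART-558 or RP6685 were tested singly and in combination with standard and investigational anticancer drugs. Each was titrated in half-log steps from near clinical Cmax, or from 10 microM where Cmax was unknown.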

[1] = second compound 0.0316 µM, first compound 0.0316 µM
[2] = second compound 0.0316 µM, first compound 0.1 µM
[3] = second compound 0.0316 µM, first compound 0.316 µM
[4] = second compound 0.0316 µM, first compound 1 µM
[5] = second compound 0.0316 µM, first compound 3.16 µM
[6] = second compound 0.0316 µM, first compound 10 µM
[7] = second compound 0.1 µM, first compound 0.0316 µM
[8] = second compound 0.1 µM, first compound 0.1 µM
[9] = second compound 0.1 µM, first compound 0.316 µM
[10] = second compound 0.1 µM, first compound 1 µM
[11] = second compound 0.1 µM, first compound 3.16 µM
[12] = second compound 0.1 µM, first compound 10 µM
[13] = second compound 0.316 µM, first compound 0.0316 µM
[14] = second compound 0.316 µM, first compound 0.1 µM
[15] = second compound 0.316 µM, first compound 0.316 µM
[16] = second compound 0.316 µM, first compound 1 µM
[17] = second compound 0.316 µM, first compound 3.16 µM
[18] = second compound 0.316 µM, first compound 10 µM
[19] = second compound 1 µM, first compound 0.0316 µM
[20] = second compound 1 µM, first compound 0.1 µM
[21] = second compound 1 µM, first compound 0.316 µM
[22] = second compound 1 µM, first compound 1 µM
[23] = second compound 1 µM, first compound 3.16 µM
[24] = second compound 1 µM, first compound 10 µM
[25] = second compound 3.16 µM, first compound 0.0316 µM
[26] = second compound 3.16 µM, first compound 0.1 µM
[27] = second compound 3.16 µM, first compound 0.316 µM
[28] = second compound 3.16 µM, first compound 1 µM
[29] = second compound 3.16 µM, first compound 3.16 µM
[30] = second compound 3.16 µM, first compound 10 µM
[31] = second compound 10 µM, first compound 0.0316 µM
[32] = second compound 10 µM, first compound 0.1 µM
[33] = second compound 10 µM, first compound 0.316 µM
[34] = second compound 10 µM, first compound 1 µM
[35] = second compound 10 µM, first compound 3.16 µM
[36] = second compound 10 µM, first compound 10 µM
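Further: spheroids exposed to compounds for seven days.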
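Wherever viability, T/C is given: 100% = DMSO vehicle control viability.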

`O=c1[nH]cc(F)c(=O)[nH]1` + Nc1ccc(C#CCN(C(=O)Cc2ncc(C(F)(F)F)cc2C(F)(F)F)c2ccc(F)cc2)nn1 was tested, and the IC50 (second compound 0.0316 µM) was > 10 µM, the IC50 (second compound 0.1 µM) was > 10 µM and the IC50 (second compound 0.316 µM) was > 10 µM. For the same compound, the IC50 (second compound 1 µM) was > 10 µM, the IC50 (second compound 3.16 µM) was > 10 µM and the IC50 (second compound 10 µM) was > 10 µM. It also gave a viability, T/C [1] of 102%, a viability, T/C [2] of 94.3% and a viability, T/C [3] of 103%. It also gave a viability, T/C [4] of 102%, a viability, T/C [5] of 97.4% and a viability, T/C [6] of 64.8%. The viability, T/C [7] was 97.7%, the viability, T/C [8] was 112% and the viability, T/C [9] was 97.4%. It also gave a viability, T/C [10] of 107%, a viability, T/C [11] of 103% and a viability, T/C [12] of 67.3%. The viability, T/C [13] was 95.9%, the viability, T/C [14] was 103% and the viability, T/C [15] was 101%. It also gave a viability, T/C [16] of 88.3%, a viability, T/C [17] of 97.3% and a viability, T/C [18] of 65.6%. The viability, T/C [19] was 98.8%, the viability, T/C [20] was 92.6% and the viability, T/C [21] was 109%. It also gave a viability, T/C [22] of 87.6%, a viability, T/C [23] of 107% and a viability, T/C [24] of 63.1%. The viability, T/C [25] was 103%, the viability, T/C [26] was 96.5% and the viability, T/C [27] was 109%. The viability, T/C [28] was 106%, the viability, T/C [29] was 104% and the viability, T/C [30] was 61%. It also gave a viability, T/C [31] of 109%, a viability, T/C [32] of 106% and a viability, T/C [33] of 101%. It also gave a viability, T/C [34] of 102%, a viability, T/C [35] of 90.6% and a viability, T/C [36] of 52.4%.
Work on `CCc1c2c(nc3ccc(O)cc13)-c1cc3c(c(=O)n1C2)COC(=O)[C@]3(O)CC` + Nc1ccc(C#CCN(C(=O)Cc2ncc(C(F)(F)F)cc2C(F)(F)F)c2ccc(F)cc2)nn1 yielded an IC50 (second compound 0.0316 µM) of 0.0309 µM, an IC50 (second compound 0.1 µM) of 0.03 µM and an IC50 (second compound 0.316 µM) of 0.0261 µM. The IC50 (second compound 1 µM) was 0.0274 µM, the IC50 (second compound 3.16 µM) was 0.0255 µM and the IC50 (second compound 10 µM) was 0.0214 µM. It also gave a viability, T/C (second compound 0.0316 µM, first compound 0.00316 µM) of 114%, a viability, T/C (second compound 0.0316 µM, first compound 0.01 µM) of 87.4% and a viability, T/C [1] of 49.6%. For the same compound, the viability, T/C [2] was 26.4%, the viability, T/C [3] was 20.3% and the viability, T/C [4] was 18.1%. For the same compound, the viability, T/C (second compound 0.1 µM, first compound 0.00316 µM) was 122%, the viability, T/C (second compound 0.1 µM, first compound 0.01 µM) was 87.1% and the viability, T/C [7] was 49.9%. It also gave a viability, T/C [8] of 24.7%, a viability, T/C [9] of 20.8% and a viability, T/C [10] of 19.1%. The viability, T/C (second compound 0.316 µM, first compound 0.00316 µM) was 128%, the viability, T/C (second compound 0.316 µM, first compound 0.01 µM) was 86.9% and the viability, T/C [13] was 43.2%. It also gave a viability, T/C [14] of 23.1%, a viability, T/C [15] of 22.4% and a viability, T/C [16] of 19.4%. It also gave a viability, T/C (second compound 1 µM, first compound 0.00316 µM) of 125%, a viability, T/C (second compound 1 µM, first compound 0.01 µM) of 82.5% and a viability, T/C [19] of 46.8%. For the same compound, the viability, T/C [20] was 24.2%, the viability, T/C [21] was 20.6% and the viability, T/C [22] was 18.3%. For the same compound, the viability, T/C (second compound 3.16 µM, first compound 0.00316 µM) was 114%, the viability, T/C (second compound 3.16 µM, first compound 0.01 µM) was 82.9% and the viability, T/C [25] was 43.5%. For the same compound, the viability, T/C [26] was 20.9%, the viability, T/C [27] was 18.5% and the viability, T/C [28] was 18.1%. It also gave a viability, T/C (second compound 10 µM, first compound 0.00316 µM) of 100%, a viability, T/C (second compound 10 µM, first compound 0.01 µM) of 71.8% and a viability, T/C [31] of 40.2%. It also gave a viability, T/C [32] of 18.5%, a viability, T/C [33] of 17% and a viability, T/C [34] of 15.9%.
Work on `CC1COCCN1c1cc(C2(O)CC3CCC(C2)O3)c2cnn(-c3ccn[nH]3)c2n1` (stereo unspecified) + Cc1cccc(N(C)C(=O)C2C(O)CCN2c2nc(C)cc(C(F)(F)F)c2C#N)c1 yielded an IC50 (second compound 0.0316 µM) of 0.0433 µM, an IC50 (second compound 0.1 µM) of 0.0422 µM and an IC50 (second compound 0.316 µM) of 0.044 µM. For the same compound, the IC50 (second compound 1 µM) was 0.0426 µM, the IC50 (second compound 3.16 µM) was 0.0377 µM and the IC50 (second compound 10 µM) was < 0.0316 µM. It also gave a viability, T/C [1] of 64.5%, a viability, T/C [2] of 11.7% and a viability, T/C [3] of 6.18%. The viability, T/C [4] was 3.85%, the viability, T/C [5] was 4.2% and the viability, T/C [6] was 4.79%. For the same compound, the viability, T/C [7] was 63.9%, the viability, T/C [8] was 8.95% and the viability, T/C [9] was 5.9%. It also gave a viability, T/C [10] of 3.73%, a viability, T/C [11] of 3.97% and a viability, T/C [12] of 3.76%. For the same compound, the viability, T/C [13] was 65.4%, the viability, T/C [14] was 12.1% and the viability, T/C [15] was 4.75%. The viability, T/C [16] was 3.38%, the viability, T/C [17] was 4.54% and the viability, T/C [18] was 3.64%. The viability, T/C [19] was 63.3%, the viability, T/C [20] was 12.2% and the viability, T/C [21] was 5.42%. It also gave a viability, T/C [22] of 3.92%, a viability, T/C [23] of 4.12% and a viability, T/C [24] of 4.45%. The viability, T/C [25] was 57.4%, the viability, T/C [26] was 9.6% and the viability, T/C [27] was 5.36%. It also gave a viability, T/C [28] of 3.46%, a viability, T/C [29] of 4.49% and a viability, T/C [30] of 4.05%. The viability, T/C [31] was 45.9%, the viability, T/C [32] was 8.7% and the viability, T/C [33] was 4.15%. The viability, T/C [34] was 3.16%, the viability, T/C [35] was 4.29% and the viability, T/C [36] was 3.09%.
